In patent US7399777B2, “Diarylcycloalkyl derivatives, processes for their preparation and their use as pharmceuticals” (Sanofi-Aventis Deutschland GmbH, priority 2001, dated 2008):

The compounds below were run against T1, human PPARα (Homo sapiens, UniProt Q07869) (assay: PPARα reporter cell line assay (stably transfected HEK cells, GR-GAL4-PPARα fusion protein, firefly luciferase reporter)). Conditions: agonist activity in HEK PPARα reporter cell line; 24 h incubation; luciferase luminescence.
T1 construct: expressed in transfected cells; host or cells: HEK cells (human embryo kidney), stably transfected with pcDNA3-GR-GAL4-humanPPARα and the luciferase reporter pdeltaMG4LZ
T1 sequence (Q07869 167-468): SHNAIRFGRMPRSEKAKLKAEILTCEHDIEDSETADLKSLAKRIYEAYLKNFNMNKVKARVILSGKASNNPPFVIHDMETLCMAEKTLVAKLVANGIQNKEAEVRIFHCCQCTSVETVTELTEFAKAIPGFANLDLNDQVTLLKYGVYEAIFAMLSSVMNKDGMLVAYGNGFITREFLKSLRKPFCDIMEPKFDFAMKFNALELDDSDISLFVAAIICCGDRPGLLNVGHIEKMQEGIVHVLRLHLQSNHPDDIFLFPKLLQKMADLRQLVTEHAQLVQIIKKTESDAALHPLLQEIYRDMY
Assay type: cell-based
Text: To analyze the effectiveness of substances which bind to human PPARα, activating it in agonistic manner, a stable transfected HEK cell line (HEK=human embryo kidney) designated here as “PPARα reporter cell line” is used. It contains two genetic elements, a firefly luciferase reporter element and a PPARα fusion protein (GR-GAL4-PPARα) which controls the expression of the firefly luciferase reporter element in a PPARα ligand dependent way.
The PPARα reporter cell line was established in two steps: First, the firefly luciferase reporter element was constructed and stably transfected into HEK cells. Five DNA binding sites for the yeast transcription factor GAL4 (five repetitions of the sequence 5′-CGGAGTACTGTCCTCCGAG-3′) (SEQ ID NO:1) were cloned 5′ upstream of a 68 bp minimal RNA polymerase II promoter from the GR mouse mammary tumor virus long terminal repeat (accession # V01175) providing a CCAAT-box as well as a TATA-element. Cloning and sequencing was done as described by Sambrook J. et. al. (Molecular cloning, Cold Spring Harbor Laboratory Press, 1989). The complete Photinus pyralis luciferase gene (accession # M 15077) was cloned 3′ downstream of the GAL4 binding sites and the MMTV minimal promoter. The firefly luciferase reporter element consisting of 5 GAL4 binding sites, the MMTV minimal promoter and the full length luciferase gene was recloned into a plasmid backbone harboring a Zeozin resistence gene leading to plasmid “pdeltaMG4LZ”. This vector was transfected in HEK cells as described by Ausubel, F. M. et al. (Current protocols in molecular biology, Vol. 1-3, John Wiley & Sons, Inc., 1995). Stable clones have been selected using Zeozin as a selection agent (0.5 mg/ml).
In a second step, the PPARα fusion protein (GR-GAL4-PPARα) that controls expression of the firefly luciferase reporter element, was stably integrated in this cell background. For this purpose the cDNAs coding for the N-terminal 76 amino acids of the human glucocorticoid receptor (“GR”, accession # P04150) have been linked to amino acids 1-147 of the yeast GAL4-protein (accession # P04386) followed by the ligand binding domain of humanPPARα (amino acids S167-Y468, accession # S74349). The GR-GAL4-human PPARα construct was cloned into plasmid pcDNA3 (Invitrogen) were its expression is driven constitutively by the Cytomegalovirus promoter. The plasmid pcDNA3-GR-GAL4-humanPPARα was transfected in a stable HEK-cell clone that already contained the firefly luciferase reporter element described above. A double-transfected cell line containing both, the firefly luciferase reporter element as well as the GR-GAL4-humanPPARα fusion protein, has been selected on medium supplemented with Zeozin (0.5 mg/ml) and G418 (0.5 mg/ml).
The activity of PPARα agonists is determined in a three day test, described below:
The PPARα reporter cell line is cultivated up to 80% confluence in DMEM medium (# 41965-039, Life Technologies) with the following additives: 10% cs-FCS (fetal calf serum, #SH-30068.03, Hyclone), antibiotics (0.5 mg/ml of zeozin [#R250-01, Invitrogen], 0.5 mg/ml of G418 [#10131-019, Life Technologies], 1% penicillin streptomycin solution [#15140-031, Life Technologies]) and 2 mM of L-glutamine (#25030-032, Life Technologies). Cultivation is carried out in standard cell culture bottles (# 33111, Becton Dickinson) in a cell culture incubator at 37° C. and 5% CO2. The 80% confluent cells are washed once with 30 ml of PBS (#14190-094, Life Technologies), treated with 2 ml of trypsin solution (#25300-054, Life Technologies) at 37° C. for 2 min, taken up in 5 ml of the medium described above and counted in a cell counter. After dilution to 500,000 cells/ml, in each case 35,000 cells are sown into each well of a 96-well microtiter plate having a clear plastic bottom (#3610, Coming Costar). The plates are incubated in a cell incubator at 37° C. and 5% CO2 for 24 h.
The PPARα agonists to be tested are dissolved in DMSO at a concentration of 10 mM. […]

Structure (SMILES)	EC50 [nM]
COc1ccc(-c2nc(CO[C@H]3CCC[C@@H](OCc4cccc(C)c4C(=O)O)C3)c(C)o2)cc1OC [LVIII, 2-{1R,3S-3-[2-(3,4-Dimethoxyphenyl)-5-methyloxazol-4-ylmethoxy]cyclohexyloxymethyl}-6-methylbenzoic acid]	0.46
Cc1ccc(-c2nc(CO[C@H]3CCC[C@@H](OCc4cccc(C)c4C(=O)O)C3)c(C)o2)cc1 [LXII, 2-Methyl-6-[1R,3S-3-(5-methyl-2-p-tolyloxazol-4-ylmethoxy)cyclohexyloxymethyl]benzoic acid]	0.08
Cc1ccc(-c2nc(CO[C@@H]3CCC[C@H](OCc4cccc(C)c4C(=O)O)C3)c(C)o2)cc1 [LXIII, 2-Methyl-6-[1S,3R-3-(5-methyl-2-p-tolyloxazol-4-ylmethoxy)cyclohexyloxymethyl]benzoic acid]	0.56
COc1ccc(-c2nc(CO[C@H]3CCC[C@@H](OCc4cccc(C)c4C(=O)O)C3)c(C)o2)cc1 [LXIV, 2-{1R,3S-3-[2-(4-Methoxyphenyl)-5-methyloxazol-4-ylmethoxy]cyclohexyloxymethyl}-6-methylbenzoic acid]	0.13
COc1ccc(-c2nc(CO[C@@H]3CCC[C@H](OCc4cccc(C)c4C(=O)O)C3)c(C)o2)cc1 [LXV, 2-{1S,3R-3-[2-(4-Methoxyphenyl)-5-methyloxazol-4-ylmethoxy]cyclohexyloxymethyl}-6-methylbenzoic acid]	1.1
Cc1cccc(CO[C@@H]2CCC[C@H](OCc3nc(-c4ccc(OC(F)(F)F)cc4)oc3C)C2)c1C(=O)O [LXX, 2-methyl-6-[(1R,3S)-3-(5-methyl-2-(4-trifluoromethoxyphenyl)-oxazol-4-ylmethoxy)-cyclohexyloxymethyl]-benzoic acid]	0.28
COc1ccc(-c2nc(CO[C@H]3CCC[C@@H](OCc4cccc(C)c4C(=O)O)C3)c(C)o2)cc1C [LXXII, 2-[(1R,3S)-3-(2-(4-methoxy-3-methylphenyl)-5-methyl-oxazol-4-ylmethoxy)-cyclohexyloxymethyl]-6-methyl-benzoic acid]	0.24
Cc1cccc(COC2C=CC(OCc3coc(-c4ccc(F)cc4)n3)C2)c1C(=O)O (centres unmarked) [XIX, 2-{4-[2-(4-Fluorophenyl)oxazol-4-ylmethoxy]cyclopent-2-enyloxymethyl}-6-methylbenzoic acid]	16

Other lines, results leading:

EC50 [nM]	Structure (SMILES)
0.13	Cc1cccc(CO[C@@H]2CCC[C@H](OCc3nc(-c4cccc(OC(F)(F)F)c4)oc3C)C2)c1C(=O)O [LVII, 2-{1R,3S-3-[2-(3-Trifluoromethoxyphenyl)-5-methyloxazol-4-ylmethoxy]cyclohexyloxymethyl}-6-methylbenzoic acid]
0.48	Cc1cccc(CO[C@@H]2CCC[C@H](OCc3nc(-c4cccc(Br)c4)oc3C)C2)c1C(=O)O [LXVI, 2-{1R,3S-3-[2-(3-Bromophenyl)-5-methyloxazol-4-ylmethoxy]cyclohexyloxymethyl}-6-methylbenzoic acid]
0.25	Cc1cccc(CO[C@@H]2CCC[C@H](OCc3nc(-c4cccc(F)c4)oc3C)C2)c1C(=O)O [XLVIII, 2-{1R,3S-3-[2-(3-Fluoro-phenyl)-5-methyl-oxazol-4-ylmethoxyl]-cyclohexyloxymethyl}-6-methylbenzoic acid]
